Patent publication US20250059188A1, “ARYLSULPHONAMIDE COMPOUNDS” (Anaxis Pharma Pty Ltd, priority 2021, published 2025)

How the values were obtained:
human RIPK3 = human RIPK3 (Homo sapiens (Human), UniProt Q9Y572); test: KINOMEscan binding assay, human RIPK3; conditions: equilibrium dissociation constant
Procedure, shortened: (§1)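 Competition binding format with qPCR detection. Kinases, either phage-fused from E. coli lysates or HEK-293-derived with a DNA tag, bound ligand-coated beads in the presence of compound (11 points, 3-fold steps, 1% DMSO, top usually 30,000 nM). Kd from nonlinear Hill fitting with slope −1.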

human MLKL (full length) = human MLKL (full length) (Homo sapiens (Human), UniProt Q8NB16); test: KINOMEscan binding assay, human MLKL (full length); conditions: equilibrium dissociation constant
Procedure, shortened: as §1

U937 cells = test: Counter screen: U937 cell viability without TSQ cocktail (off-target effect); set-up: species or system human; conditions: Homo sapiens, U-937, compound without TSQ cocktail, read-out: Off-target effect (IC50 cell-based assay)
Procedure, shortened: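 U937 cells (20,000/well) exposed to compound (10-point 1:3 titration from 36 μM, 0.3% DMSO) without TSQ cocktail for 48 h at 37 °C/5% CO2. Viability read as ATP by CellTiter-Glo luminescence; IC50 from 4-parameter logistic fit.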

human RIPK1 = human RIPK1 (Homo sapiens (Human), UniProt Q13546); test: KINOMEscan binding assay, human RIPK1; conditions: equilibrium dissociation constant
Procedure, shortened: as §1

[1] = test system: U937 human histiocytic leukemia cell line; test: Inhibition of TSQ induced necroptosis in U937 cells (CellTitre-Glo); conditions: Homo sapiens, U-937, TSQ cocktail (TNF, Smac mimetic, Q-VD-OPh), 48 hours, read-out: Inhibition of TSQ-induced necroptosis (IC50 cell-based assay)
Procedure, shortened: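 U937 cells (20000/well) treated with compound (10-point, 1:3 from 36 μM, 0.3% DMSO) plus TSQ cocktail (hTNF-Fc 100 ng/ml, Smac mimetic 500 nM, Q-VD-OPh 10 μM), 48 h at 37 °C. Viability by CellTiter-Glo luminescence; IC50 from 4-parameter logistic fit. Counter screen: same cells without TSQ.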

Chain of human RIPK1 (Q13546 whole entry): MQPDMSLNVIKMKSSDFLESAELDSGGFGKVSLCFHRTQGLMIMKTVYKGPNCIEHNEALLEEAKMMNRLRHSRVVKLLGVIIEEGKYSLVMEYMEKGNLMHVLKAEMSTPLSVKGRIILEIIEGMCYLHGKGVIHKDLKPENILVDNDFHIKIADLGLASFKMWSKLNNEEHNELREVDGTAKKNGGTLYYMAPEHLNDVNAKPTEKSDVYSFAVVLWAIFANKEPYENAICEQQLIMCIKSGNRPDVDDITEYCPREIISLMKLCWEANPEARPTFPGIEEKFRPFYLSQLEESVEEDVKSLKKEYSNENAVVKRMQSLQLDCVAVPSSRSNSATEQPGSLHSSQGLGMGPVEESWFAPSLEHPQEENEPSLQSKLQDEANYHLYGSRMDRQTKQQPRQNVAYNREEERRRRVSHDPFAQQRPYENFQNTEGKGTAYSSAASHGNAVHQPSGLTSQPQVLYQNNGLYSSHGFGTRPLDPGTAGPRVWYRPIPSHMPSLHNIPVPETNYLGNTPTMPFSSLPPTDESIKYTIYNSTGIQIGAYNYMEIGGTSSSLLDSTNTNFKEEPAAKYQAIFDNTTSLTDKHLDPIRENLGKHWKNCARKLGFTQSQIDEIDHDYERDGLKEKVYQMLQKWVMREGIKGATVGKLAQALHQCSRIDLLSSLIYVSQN
Chain of human RIPK3 (Q9Y572 whole entry, the tested form may be a part): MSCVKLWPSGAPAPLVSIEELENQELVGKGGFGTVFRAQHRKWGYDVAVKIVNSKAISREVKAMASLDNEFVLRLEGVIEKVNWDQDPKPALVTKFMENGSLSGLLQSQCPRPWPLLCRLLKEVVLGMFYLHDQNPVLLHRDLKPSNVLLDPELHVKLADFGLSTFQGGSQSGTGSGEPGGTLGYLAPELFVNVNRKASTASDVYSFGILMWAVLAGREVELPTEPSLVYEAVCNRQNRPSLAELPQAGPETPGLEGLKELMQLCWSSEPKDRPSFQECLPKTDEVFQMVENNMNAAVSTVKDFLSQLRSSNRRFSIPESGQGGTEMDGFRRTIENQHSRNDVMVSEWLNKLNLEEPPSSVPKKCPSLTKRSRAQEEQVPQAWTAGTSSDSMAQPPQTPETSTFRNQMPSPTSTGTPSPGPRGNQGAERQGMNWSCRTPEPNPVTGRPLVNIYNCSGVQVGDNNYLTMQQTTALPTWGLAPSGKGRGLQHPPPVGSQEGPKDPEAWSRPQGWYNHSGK
Chain of human MLKL (full length) (Q8NB16 whole entry): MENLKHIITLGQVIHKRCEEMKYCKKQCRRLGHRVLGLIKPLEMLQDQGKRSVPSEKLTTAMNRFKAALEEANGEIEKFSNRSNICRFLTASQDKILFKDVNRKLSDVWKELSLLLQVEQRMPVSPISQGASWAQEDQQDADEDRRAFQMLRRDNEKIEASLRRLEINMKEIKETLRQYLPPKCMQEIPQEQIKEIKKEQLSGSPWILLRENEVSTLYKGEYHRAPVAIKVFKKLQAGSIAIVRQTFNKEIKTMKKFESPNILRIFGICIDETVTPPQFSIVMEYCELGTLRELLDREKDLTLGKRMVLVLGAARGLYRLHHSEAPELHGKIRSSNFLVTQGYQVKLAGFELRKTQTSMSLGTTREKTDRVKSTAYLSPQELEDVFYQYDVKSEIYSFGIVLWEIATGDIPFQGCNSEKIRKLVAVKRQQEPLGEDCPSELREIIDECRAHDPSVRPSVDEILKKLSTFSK

Row | SMILES | Kd (human RIPK3) [µM] | Kd (human MLKL (full length)) [µM] | IC50 (U937 cells) [µM] | Kd (human RIPK1) [µM] | IC50 [1] [µM]
1 | Cc1nn(C2CCN(C)C(C)(C)C2)cc1-c1cnc(N)c2c(-c3ccc(NS(=O)(=O)C(F)F)c(O[C@@H](C)c4ccc(F)cc4)c3)nn(C)c12 (stereo partly drawn) [Compound 156, N-(4-(4-amino-1-methyl-7-(3-methyl-1-(1,2,2-trimethylpiperidin-4-yl)-1H-pyrazol-4-yl)-1H-pyrazolo[4,3-c]pyridin-3-yl)-2-((S)-1-(4-fluorophenyl)ethoxy)phenyl)-1,1-difluoromethanesulfonamide] | > 10 | 0.001 to 0.1 | > 10 | > 10 | 0.01 to 1
2 | C[C@H](Oc1cc(-c2nn(C)c3c(-c4ccn(C)c4)cnc(N)c23)ccc1NS(=O)(=O)C(F)F)c1ccc(F)cc1 [Compound 126, (S)-N-(4-(4-amino-1-methyl-7-(1-methyl-1H-pyrrol-3-yl)-1H-pyrazolo[4,3-c]pyridin-3-yl)-2-(1-(4-fluorophenyl)ethoxy)phenyl)-1,1-difluoromethanesulfonamide] | > 10 | 0.001 to 0.1 | > 10 | > 10 | 0.01 to 1
3 | C[C@H](Oc1cc(-c2nn(C)c3c(-c4ccnc(C(C)(C)C)c4)cnc(N)c23)ccc1NS(=O)(=O)C(F)F)c1ccc(F)cc1 [Compound 48, (S)-N-(4-(4-amino-7-(2-(tert-butyl)pyridin-4-yl)-1-methyl-1H-pyrazolo[4,3-c]pyridin-3-yl)-2-(1-(4-fluorophenyl)ethoxy)phenyl)-1,1-difluoromethanesulfonamide] | > 10 | 0.001 to 0.1 | > 10 | > 10 | 1 to 10
4 | C[C@H](Oc1cc(-c2nn(C)c3c(-c4cnn(C5CCOCC5)c4)cnc(N)c23)ccc1NS(=O)(=O)CC(F)(F)F)c1ccc(F)cc1 [Compound 44, (S)—N-(4-(4-amino-1-methyl-7-(1-(tetrahydro-2H-pyran-4-yl)-1H-pyrazol-4-yl)-1H-pyrazolo[4,3-c]pyridin-3-yl)-2-(1-(4-fluorophenyl)ethoxy)phenyl)-2,2,2-trifluoroethane-1-sulfonamide] | > 10 | 0.001 to 0.1 | > 10 | > 10 | 0.01 to 1
5 | C[C@H](Oc1cc(-c2nn(C)c3c(-c4ccc5[nH]c(=O)n(C)c5c4)cnc(N)c23)ccc1NS(=O)(=O)C(F)F)c1ccc(F)cc1 [Compound 160, (S)-N-(4-(4-amino-1-methyl-7-(3-methyl-2-oxo-2,3-dihydro-1H-benzo[d]imidazol-5-yl)-1H-pyrazolo[4,3-c]pyridin-3-yl)-2-(1-(4-fluorophenyl)ethoxy)phenyl)-1,1-difluoromethanesulfonamide] | > 10 | < 0.001 | > 10 | > 10 | 0.01 to 1
6 | C[C@H](Oc1cc(-c2nn(C)c3c(-c4cnn(C5COC5)c4)cnc(N)c23)ccc1NS(=O)(=O)C(F)F)c1ccc(F)cc1 [Compound 38, (S)-N-(4-(4-amino-1-methyl-7-(1-(oxetan-3-yl)-1H-pyrazol-4-yl)-1H-pyrazolo[4,3-c]pyridin-3-yl)-2-(1-(4-fluorophenyl)ethoxy)phenyl)-1,1-difluoromethanesulfonamide] | > 10 | < 0.001 | > 10 | > 10 | < 0.01
7 | COc1cc(-c2cnc(N)c3c(-c4ccc(NS(=O)(=O)C(F)F)c(O[C@@H](C)c5ccc(F)cc5)c4)nn(C)c23)ccn1 [Compound 27, (S)-N-(4-(4-amino-7-(2-methoxypyridin-4-yl)-1-methyl-1H-pyrazolo[4,3-c]pyridin-3-yl)-2-(1-(4-fluorophenyl)ethoxy)phenyl)-1,1-difluoromethanesulfonamide] | > 10 | 0.001 to 0.1 | > 10 | > 10 | 0.01 to 1
8 | C[C@H](Oc1cc(-c2nn(C)c3c(-c4cnn(CCN(C)C)c4)cnc(N)c23)ccc1NS(=O)(=O)C(F)F)c1ccc(F)cc1 [Compound 100, (S)-N-(4-(4-amino-7-(1-(2-(dimethylamino)ethyl)-1H-pyrazol-4-yl)-1-methyl-1H-pyrazolo[4,3-c]pyridin-3-yl)-2-(1-(4-fluorophenyl)ethoxy)phenyl)-1,1-difluoromethanesulfonamide] | > 10 | < 0.001 | > 10 | > 10 | < 0.01
9 | C[C@H](Oc1cc(-c2cnn3c(-c4cnn(C)c4)cnc(N)c23)ccc1NS(=O)(=O)C(F)F)c1ccc(F)cc1 [Compound 35, (S)-N-(4-(4-amino-7-(1-methyl-1H-pyrazol-4-yl)pyrazolo[1,5-a]pyrazin-3-yl)-2-(1-(4-fluorophenyl)ethoxy)phenyl)-1,1-difluoromethanesulfonamide] | > 10 | < 0.001 | > 10 | > 10 | 0.01 to 1
10 | C[C@H](Oc1cc(-c2nn(C)c3c(-c4ccc5c(c4)n(C)c(=O)n5C)cnc(N)c23)ccc1NS(=O)(=O)C(F)F)c1ccc(F)cc1 [Compound 161, (S)-N-(4-(4-amino-7-(1,3-dimethyl-2-oxo-2,3-dihydro-1H-benzo[d]imidazol-5-yl)-1-methyl-1H-pyrazolo[4,3-c]pyridin-3-yl)-2-(1-(4-fluorophenyl)ethoxy)phenyl)-1,1-difluoromethanesulfonamide] | > 10 | < 0.001 | > 10 | > 10 | 1 to 10
11 | C[C@H](Oc1cc(-c2nn(C)c3c(-c4ccc5c(c4)CC(=O)N5C)cnc(N)c23)ccc1NS(=O)(=O)C(F)F)c1ccc(F)cc1 [Compound 165, (S)-N-(4-(4-amino-1-methyl-7-(1-methyl-2-oxoindolin-5-yl)-1H-pyrazolo[4,3-c]pyridin-3-yl)-2-(1-(4-fluorophenyl)ethoxy)phenyl)-1,1-difluoromethanesulfonamide] | > 10 | 0.001 to 0.1 | > 10 | > 10 | 0.01 to 1
12 | Cc1ccc(-c2cnc(N)c3c(-c4ccc(NS(=O)(=O)C(F)F)c(O[C@@H](C)c5ccc(F)cc5)c4)nn(C)c23)cn1 [Compound 26, (S)-N-(4-(4-amino-1-methyl-7-(6-methylpyridin-3-yl)-1H-pyrazolo[4,3-c]pyridin-3-yl)-2-(1-(4-fluorophenyl)ethoxy)phenyl)-1,1-difluoromethanesulfonamide] | > 10 | < 0.001 | > 10 | > 10 | 0.01 to 1
13 | C[C@H](Oc1cc(-c2nn(C)c3c(C#N)cnc(N)c23)ccc1NS(=O)(=O)C(F)F)c1ccc(F)cc1 [Compound 133, N-(4-{4-amino-7-cyano-1-methyl-1H-pyrazolo[4,3-c]pyridin-3-yl}-2-[(1S)-1-(4-fluorophenyl)ethoxy]phenyl)-1,1-difluoromethanesulfonamide] | > 10 | < 0.001 | > 10 | > 10 | 0.01 to 1
14 | C[C@H](Oc1cc(-c2nn(C)c3c(-c4cnn(C5(CN)CC5)c4)cnc(N)c23)ccc1NS(=O)(=O)C(F)F)c1ccc(F)cc1 [Compound 89, (S)—N-(4-(4-amino-7-(1-(1-(aminomethyl)cyclopropyl)-1H-pyrazol-4-yl)-1-methyl-1H-pyrazolo[4,3-c]pyridin-3-yl)-2-(1-(4-fluorophenyl)ethoxy)phenyl)-1,1-difluoromethanesulfonamide] | > 10 | < 0.001 | > 10 | > 10 | 0.01 to 1
